Measurements as given in patent US12419905B2, “Methods and compositions for the treatment of amyloid-related disorders” (YALE UNIVERSITY, priority 2018, dated 2025).

How the values were obtained:
[1] = test system: Aßo/PrP^C interaction in stably PrP^C-transfected CV1 cells; assay type: cell-based, rat
[2] = test system: APP/PS1 transgenic Alzheimer's model mice; assay: Morris water maze in APP/PS1 mice; assay type: in vivo, mouse; settings: fresh ceftazidime (as Fortaz) 100 mg/kg IP BID
Experimental: For Morris water maze, mice were randomly assigned to treatment groups and the experimenter was unaware of both genotype and treatment group. Groups were balanced for age, sex, and weight. Mice used were 12-14 months of age at experiment initiation. During treatment, the experimenter was blinded to genotype. For drug treated mice, Poly(4-styrenesulfonic acid co-maleic acid) was administered by twice daily oral gavage of 5.0 mg and 15.0 mg Poly(4-styrenesulfonic acid co-maleic acid) per kg body weight in a vehicle of 0.5% w/v hydroxypropyl methylcellulose and 0.1% w/v polysorbate 80 to APP/PS1 and WT mice, respectively. Vehicle treated animals were gavaged twice daily with vehicle. 500 mg ceftazidime as Fortaz was dissolved per manufacturer's instructions in 1.5 ml sterile milliQ H2O to obtain 333 mg/ml in sodium carbonate solution. Animals treated peripherally with fresh ceftazidime were injected directly after dissolution intraperitoneally with 100 mg ceftazidime per kg body weight in a vehicle of PBS. Animals treated centrally with aged ceftazidime were fitted with an intracerebroventricular cannula (Alzet brain infusion kit 0008663) and subcutaneous osmotic minipump (Alzet model 1004) loaded with aged ceftazidime diluted in PBS. All animals were treated for 4 weeks prior to the Morris water maze and throughout assessment. […]

Compound | Aßo/PrP^C interaction-inhibiting activity, aged drug [1] | Aßo/PrP^C interaction-inhibiting activity, fresh drug [1] | MWM latency to hidden platform, effect of treatment [2]
CO/N=C(\C(=O)N[C@@H]1C(=O)N2C(C(=O)O)=C(COC(C)=O)CS[C@H]12)c1csc(N)n1 [cefotaxime] | zero activity | zero activity | 
CC(C)(O/N=C(\C(=O)N[C@@H]1C(=O)N2C(C(=O)[O-])=C(C[n+]3ccccc3)CS[C@H]12)c1csc(N)n1)C(=O)O [ceftazidime] | exhibited activity |  | no detectable effect
CO/N=C(\C(=O)N[C@@H]1C(=O)N2C(C(=O)O)=C(CSc3nc(=O)c(=O)[nH]n3C)CS[C@H]12)c1csc(N)n1 [ceftriaxone] | zero activity | zero activity | 
